Reference: ChEMBL document CHEMBL1201862, “PubChem BioAssay data set” (2004)
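Test compounds were applied to cells in 96-well plates for 48 hours at 5 doses. Here, GI50 denotes the concentration required for 50% inhibition of growth.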 Activity calls are given as the source filed them. Rule as the data show it: active = GI50 up to about 1.1 µM and inactive = higher.

Assays:
Assay in all cases: NCI tumour cell line growth inhibition, 48 h
UACC-62 = system: UACC-62
XF498 = system: XF498
HOP-18 = system: HOP-18
SNB-75 = system: SNB-75
HOP-92 = system: HOP-92
NCI-H522 = system: NCI-H522
HOP-62 = system: HOP-62
DLD-1 = system: DLD-1
HT-29 = system: HT-29
KM12 = system: KM12
COLO 205 = system: COLO 205
U-251 = system: U-251
786-0 = system: 786-0
SF-268 = system: SF-268
SK-MEL-2 = system: SK-MEL-2
HCT-116 = system: HCT-116
HL-60 = system: HL-60
OVCAR-3 = system: OVCAR-3
NCI-H226 = system: NCI-H226
LXFL 529 = system: LXFL 529
OVCAR-8 = system: OVCAR-8
K562 = system: K562
SW-620 = system: SW-620
EKVX = system: EKVX
SF-295 = system: SF-295
MOLT-4 = system: MOLT-4
RXF 393 = system: RXF 393
Malme-3M = system: Malme-3M
SNB-19 = system: SNB-19
A498 = system: A498
UACC-257 = system: UACC-257
HCC 2998 = system: HCC 2998
IGROV-1 = system: IGROV-1
OVCAR-4 = system: OVCAR-4
KM-20L2 = system: KM-20L2
SF-539 = system: SF-539
RPMI-8226 = system: RPMI-8226
TK-10 = system: TK-10
A549 = system: A549
CCRF-CEM = system: CCRF-CEM
SR = system: SR
HCT-15 = system: HCT-15
SK-MEL-28 = system: SK-MEL-28
NCI-H460 = system: NCI-H460
ACHN = system: ACHN
M19-MEL = system: M19-MEL
SN12C = system: SN12C
UO-31 = system: UO-31
M14 = system: M14
LOX IMVI = system: LOX IMVI
SNB-78 = system: SNB-78
NCI-H23 = system: NCI-H23
DMS-273 = system: DMS-273
DMS-114 = system: DMS-114
SK-OV-3 = system: SK-OV-3
CAKI-1 = system: CAKI-1
OVCAR-5 = system: OVCAR-5
SK-MEL-5 = system: SK-MEL-5

## Cc1c(-c2nnc(-c3ccc(Cl)cc3)o2)c(=O)n(-c2ccccc2)n1C
UACC-62
  GI50: > 100 µM (inactive)
XF498
  GI50: > 100 µM (inactive)
HOP-18
  GI50: > 100 µM (inactive)
SNB-75
  GI50: > 100 µM (inactive)
HOP-92
  GI50: > 100 µM (inactive)
NCI-H522
  GI50: > 100 µM (inactive)
HOP-62
  GI50: > 100 µM (inactive)
DLD-1
  GI50: > 100 µM (inactive)
HT-29
  GI50: > 100 µM (inactive)
KM12
  GI50: > 100 µM (inactive)
COLO 205
  GI50: > 100 µM (inactive)
U-251
  GI50: > 100 µM (inactive)
786-0
  GI50: > 100 µM (inactive)
SF-268
  GI50: > 100 µM (inactive)
SK-MEL-2
  GI50: > 100 µM (inactive)
HCT-116
  GI50: > 100 µM (inactive)
HL-60
  GI50: > 100 µM (inactive)
OVCAR-3
  GI50: > 100 µM (inactive)
NCI-H226
  GI50: > 100 µM (inactive)
LXFL 529
  GI50: > 100 µM (inactive)
OVCAR-8
  GI50: > 100 µM (inactive)
K562
  GI50: > 100 µM (inactive)
SW-620
  GI50: > 100 µM (inactive)
EKVX
  GI50: > 100 µM (inactive)
SF-295
  GI50: > 100 µM (inactive)
MOLT-4
  GI50: > 100 µM (inactive)
RXF 393
  GI50: > 100 µM (inactive)
Malme-3M
  GI50: > 100 µM (inactive)
SNB-19
  GI50: > 100 µM (inactive)
A498
  GI50: > 100 µM (inactive)
UACC-257
  GI50: > 100 µM (inactive)
HCC 2998
  GI50: > 100 µM (inactive)
IGROV-1
  GI50: > 100 µM (inactive)
OVCAR-4
  GI50: > 100 µM (inactive)
KM-20L2
  GI50: > 100 µM (inactive)
SF-539
  GI50: 3.33 µM (inactive)
RPMI-8226
  GI50: > 100 µM (inactive)
TK-10
  GI50: > 100 µM (inactive)
A549
  GI50: > 100 µM (inactive)
CCRF-CEM
  GI50: > 100 µM (inactive)
SR
  GI50: > 100 µM (inactive)
HCT-15
  GI50: > 100 µM
SK-MEL-28
  GI50: > 100 µM (inactive)
NCI-H460
  GI50: > 100 µM (inactive)
ACHN
  GI50: > 100 µM (inactive)
M19-MEL
  GI50: > 100 µM (inactive)
SN12C
  GI50: > 100 µM (inactive)
UO-31
  GI50: > 100 µM (inactive)
M14
  GI50: > 100 µM (inactive)
LOX IMVI
  GI50: > 100 µM (inactive)
SNB-78
  GI50: > 100 µM (inactive)
NCI-H23
  GI50: > 100 µM (inactive)
DMS-273
  GI50: > 100 µM (inactive)
DMS-114
  GI50: > 100 µM (inactive)
SK-OV-3
  GI50: > 100 µM (inactive)

## C/C(=N\Nc1ccccc1)c1sc(-c2nc(C)c(/C(C)=N/Nc3ccccc3)s2)nc1C
UACC-62
  GI50: 4.07 µM (inactive)
XF498
  GI50: 45.6 µM (inactive)
HOP-18
  GI50: > 45 µM (inactive)
SNB-75
  GI50: 23.4 µM (inactive)
HOP-92
  GI50: 10.4 µM (inactive)
NCI-H522
  GI50: 18.1 µM (inactive)
DLD-1
  GI50: 22.1 µM (inactive)
CAKI-1
  GI50: > 58.2 µM (inactive)
HT-29
  GI50: 9.06 µM (inactive)
KM12
  GI50: 24.7 µM (inactive)
COLO 205
  GI50: 8.24 µM (inactive)
U-251
  GI50: 37.1 µM (inactive)
786-0
  GI50: 18.8 µM (inactive)
SK-MEL-2
  GI50: > 100 µM (inactive)
HCT-116
  GI50: 33.7 µM (inactive)
HL-60
  GI50: 31.8 µM (inactive)
OVCAR-3
  GI50: 23.6 µM (inactive)
NCI-H226
  GI50: 40.4 µM (inactive)
LXFL 529
  GI50: 7.06 µM (inactive)
OVCAR-8
  GI50: 33.4 µM (inactive)
K562
  GI50: 7.36 µM (inactive)
SW-620
  GI50: 13.8 µM (inactive)
EKVX
  GI50: 24.7 µM (inactive)
SF-295
  GI50: 9.98 µM (inactive)
MOLT-4
  GI50: 19.2 µM (inactive)
OVCAR-5
  GI50: 51.3 µM (inactive)
RXF 393
  GI50: 22.8 µM (inactive)
Malme-3M
  GI50: 16.1 µM (inactive)
SK-MEL-5
  GI50: 16.7 µM (inactive)
SNB-19
  GI50: > 63.1 µM (inactive)
A498
  GI50: > 46.1 µM (inactive)
UACC-257
  GI50: 35.1 µM (inactive)
HCC 2998
  GI50: 7.93 µM (inactive)
IGROV-1
  GI50: 14.1 µM (inactive)
OVCAR-4
  GI50: 21.2 µM (inactive)
KM-20L2
  GI50: 6.46 µM (inactive)
SF-539
  GI50: 16.1 µM (inactive)
RPMI-8226
  GI50: 12.6 µM (inactive)
TK-10
  GI50: 80.9 µM (inactive)
A549
  GI50: 13.5 µM (inactive)
CCRF-CEM
  GI50: 28.3 µM (inactive)
SR
  GI50: 25.6 µM (inactive)
HCT-15
  GI50: 11.4 µM
SK-MEL-28
  GI50: > 48.2 µM (inactive)
NCI-H460
  GI50: 42.2 µM (inactive)
ACHN
  GI50: 10.4 µM (inactive)
M19-MEL
  GI50: 17.2 µM (inactive)
SN12C
  GI50: > 78.2 µM (inactive)
UO-31
  GI50: 8.83 µM (inactive)
M14
  GI50: 7.71 µM (inactive)
LOX IMVI
  GI50: 7.96 µM (inactive)
SNB-78
  GI50: > 64.7 µM (inactive)
NCI-H23
  GI50: 32.7 µM (inactive)
DMS-273
  GI50: 8.93 µM (inactive)
DMS-114
  GI50: 11.5 µM (inactive)
SK-OV-3
  GI50: 58.5 µM (inactive)

## Cc1cc(O)cc2oc(=O)c3c(O)cc(O)cc3c12 [ALTERNARIOL]
UACC-62
  GI50: 24 µM (inactive)
XF498
  GI50: 27.1 µM (inactive)
HOP-18
  GI50: 26.8 µM (inactive)
SNB-75
  GI50: 12.7 µM (inactive)
HOP-92
  GI50: 30.5 µM (inactive)
NCI-H522
  GI50: 13.4 µM (inactive)
HOP-62
  GI50: 20.7 µM (inactive)
DLD-1
  GI50: 30.7 µM (inactive)
CAKI-1
  GI50: 21 µM (inactive)
HT-29
  GI50: 39.3 µM (inactive)
KM12
  GI50: 26.8 µM (inactive)
COLO 205
  GI50: 27.4 µM (inactive)
U-251
  GI50: 28.5 µM (inactive)
786-0
  GI50: 28.6 µM (inactive)
SF-268
  GI50: 27.4 µM (inactive)
SK-MEL-2
  GI50: 37.6 µM (inactive)
HCT-116
  GI50: 17.6 µM (inactive)
HL-60
  GI50: 16.4 µM (inactive)
OVCAR-3
  GI50: 23 µM (inactive)
NCI-H226
  GI50: 19.5 µM (inactive)
LXFL 529
  GI50: 59.6 µM (inactive)
OVCAR-8
  GI50: 43.2 µM (inactive)
K562
  GI50: 36.6 µM (inactive)
SW-620
  GI50: 16.2 µM (inactive)
EKVX
  GI50: 6.71 µM (inactive)
SF-295
  GI50: 26.3 µM (inactive)
MOLT-4
  GI50: 7.59 µM (inactive)
OVCAR-5
  GI50: 69.2 µM (inactive)
RXF 393
  GI50: 23.3 µM (inactive)
Malme-3M
  GI50: 40.3 µM (inactive)
SK-MEL-5
  GI50: 18.5 µM (inactive)
SNB-19
  GI50: 20 µM (inactive)
A498
  GI50: 40.1 µM (inactive)
UACC-257
  GI50: > 100 µM (inactive)
HCC 2998
  GI50: 18.5 µM (inactive)
IGROV-1
  GI50: 19.7 µM (inactive)
OVCAR-4
  GI50: 65.3 µM (inactive)
KM-20L2
  GI50: 27.7 µM (inactive)
SF-539
  GI50: 17 µM (inactive)
TK-10
  GI50: 44.5 µM (inactive)
A549
  GI50: 16.1 µM (inactive)
CCRF-CEM
  GI50: 23.4 µM (inactive)
SR
  GI50: 3.69 µM (inactive)
HCT-15
  GI50: 18.2 µM
SK-MEL-28
  GI50: > 100 µM (inactive)
NCI-H460
  GI50: 13.1 µM (inactive)
ACHN
  GI50: 14.1 µM (inactive)
M19-MEL
  GI50: 58.6 µM (inactive)
SN12C
  GI50: 50.5 µM (inactive)
UO-31
  GI50: 34.6 µM (inactive)
M14
  GI50: 60 µM (inactive)
LOX IMVI
  GI50: 16.1 µM (inactive)
SNB-78
  GI50: 34.5 µM (inactive)
NCI-H23
  GI50: 20.7 µM (inactive)
DMS-273
  GI50: 23 µM (inactive)
DMS-114
  GI50: 34.4 µM (inactive)
SK-OV-3
  GI50: 18.5 µM (inactive)
